Values after ≈ are worked out from the molar mass of the structure shown. Where two headings read alike, the source gives them in different places.
How the values were obtained:
Type in all cases: in vivo
Tetranychus Urticae = experiment: Acaricide study on Tetranychus Urticae; details: 72 h, read-out: LC50, Tetranychus
Experimental: Bean plants were used comprising 2 leaves infested with 30 females of Tetranychus Urticae per leaf and put under an aerated hood under a lighted ceiling which was constantly on. The plants were treated with a Fisher gun with 4 ml of toxic solution per plant of a mixture with an equal volume of water and acetone. After leaving to dry for half an hour the infestation was proceeded with and mortality checks were carried out at the end of 3 days. The LC50 dose was determined and the results are set out in the table below, taking account of the following values: […]

Aphis Cracivora = experiment: Insecticide activity: activity on Aphis Cracivora; details: female apter on sprayed broad bean leaves, 24 hours
Experimental: 2 ml of water acetone solution (50/50) was sprayed on broad bean leaves (vicia fabae) until the leaves were running with solution. After drying, 15 female apter of Aphis cracivora were deposited on the leaves and the mixture was kept on the damp filter paper inside a Petri dish. 24 hours after the start of contact, the number of dead insects was determined and the LC50 dose expressed in ppm were determined.

Plasmopara viticola = experiment: Fungicide activity: tests on Plasmopara viticola (vine plants, leaf spray); details: 100 ppm of active material, relative to non-treated control; for % of effectiveness on plasmopara viticola, Grenache vine: ten days after contamination
Experimental: Young vine plants from cuttings (Grenache N variety, clone 70) were cultivated in a greenhouse (daytime temperature: 30° C., night-time temperature: 25° C.) on an earth/compost/sand mixture, (1/3-1/3-1/3). Two days before the test, the plants were moved into a culture chamber with the same temperature conditions and humidity 60% in the day, 80% at night. The product was dissolved in "matrix A" at a concentration of 100 ppm just before use. The treatment took place by spraying the solution on the leaves until saturation Contamination was carried out with a suspension of zoospores of Plasmopara viticola taken immediately before the test using 50,000 zoospores per ml. Drops of suspension (20 micro-liters) were deposited on the abaxial surface of the leaves. The plants were then kept for 24 hours in an atmosphere saturated with water-vapour. Then, the atmosphere was returned to the humidity of the culture chamber (60% in the day, 80% at night). The reading was taken ten days after contamination by measuring the development of clusters of sporangiophores on the abaxial surface of the leaves. The effectiveness of the product was calculated relative to a non-treated control. The same type of test was carried out on a Chardonnay vine.
The results obtained in % of effectiveness on plasmopara viticola at 100 ppm of active material were as follows: […]

Musca Domestica (Fly) = experiment: Insecticide activity: lethal effect on Musca Domestica (topical application); details: 6-day-old female flies, topical application of acetone solution on dorsal thorax, 22° C.
Experimental: 6-day-old female flies weighing 18 to 20 mg were used and the operation was carried out at 22° C. at relative humidity conditions of 50%. The products were administered by topical application of an acetone solution of 1 g/l on the dorsal thorax of the insects. The LC50 dose was determined and was expressed in ppm.

[1] = test system: Spodoptera Littoralis (L3 stage larvae); experiment: whole plant or invertebrate; details: 168 h, read-out: LC50, Spodoptera
Experimental: L3 stage SPODOPTERA LITTORALIS larvae were used and the operation was carried out at 22° C. at relative humidity conditions of 50%. Petri dishes were used containing a damp circular piece of filter paper and in each dish, two bean plant leaves were placed and treated with hydroacetonic solution (50-50) containing the product under test. The dead larvae were counted at the end of 7 days and the concentration LC50 were expressed in ppm.

[2] = females on treated bean plants, 3 days
[3] = L3 larvae, contact and ingestion, treated bean leaves, 7 days, 22° C.

Compound | LC50 (Tetranychus Urticae; [2]) [µg/mL] | % of effectiveness on plasmopara viticola, Grenache vine (Plasmopara viticola) [%] | LC50 (Musca Domestica (Fly)) [µg/mL] | LC50 [1, 3] [µg/mL] | further results
CCCCc1cc2cccc(/C(=C\OC)C(=O)OC)c2o1 [18 (E), Methyl α[(E)-methoxymethylene1-2-butyl-7-benzofuran acetate] | < 250 | – | – | – | LC50 (Aphis Cracivora): < 250 µg/mL
CO/C=C(/C(=O)OC)c1cccc2cc(-c3cccc(OC)c3)oc12 [2 (E)] | – | 100 | – | – | % of effectiveness on plasmopara viticola, Chardonnay vine (Plasmopara viticola): 100%
CO/C=C(/C(=O)OC)c1cccc2cc(-c3ccc(Cl)cc3)oc12 [12 (E)] | < 250 | 100 | < 250 | – | % of effectiveness on plasmopara viticola, Chardonnay vine (Plasmopara viticola): 100%
CO/C=C(/C(=O)OC)c1cccc2cc(-c3ccc(OC)cc3)oc12 [Example 1 (E), Methyl α-[(E)-methoxymethylene]-2-(4-methoxy-phenyl)-7-benzofuranacetate] | – | 90 | – | – | LC50 [1]: 250 to 1000 µg/mL (≈ 739 to 2960 µM); LC50 (Tetranychus Urticae): < 250 µg/mL
CO/C=C(/C(=O)OC)c1cccc2cc(-c3ccc(Cl)c(OC)c3)oc12 [15 (E)] | 250 to 1000 (≈ 671 to 2680 µM) | – | < 250 | 250 to 1000 (≈ 671 to 2680 µM) | LC50 (Aphis Cracivora): < 250 µg/mL
CO/C=C(/C(=O)OC)c1cccc2cc(-c3csc(C(C)C)n3)oc12 [16 (E), Methyl α-(E)methoxymethylene1-7-[2-[4-(2-isopropylthiazolyl)-benzofuranyl]-acetate] | < 250 | – | – | – | –
CO/C=C(\C(=O)OC)c1cccc2cc(-c3ccccc3)oc12 [3 (Z)] | – | – | – | 250 to 1000 (≈ 811 to 3240 µM) | –
CO/C=C(/C(=O)OC)c1cccc2cc(-c3ccccc3Cl)oc12 [10 (E)] | – | 100 | – | – | % of effectiveness on plasmopara viticola, Chardonnay vine (Plasmopara viticola): 90%
CO/C=C(/C(=O)OC)c1cccc2cc(-c3csc(-c4ccc(OC(F)(F)F)cc4)n3)oc12 [19 (E), Methyl α[(E)-methoxymethylene]-2-[2-[4-(trifluoromethyxy)-pehny]-4-thiazolyl]-7-benzofuran acette] | – | – | – | < 250 | –
CO/C=C(/C(=O)OC)c1cccc2cc(-c3cccc(Oc4ccccc4)c3)oc12 [24 (E), Methyl α-[(E)-methoxymethylene]-2-(3-phenoxyphenyl) -7-benzofuran acetate] | – | – | < 250 | – | –
CO/C=C(/C(=O)OC)c1cccc2cc(-c3ccc4c(c3)OCO4)oc12 [17 (E), Methyl α[(E)-methoxymethylene1-2-(3,4-methylenedioxy)-phenyl-7-benzofuran acetate] | – | – | < 250 | < 250 | –
CO/C=C(/C(=O)OC)c1cccc2cc(-c3ccc(Br)c(C(F)(F)F)c3)oc12 [14 (E), Methyl α[(E)methoxymethylene1-2-4-bromo-3-(trifluoromethyl)-phenyl]benzofuran acetate] | < 250 | – | < 250 | 250 to 1000 | –
CO/C=C(/C(=O)OC)c1cccc2cc(-c3ccccc3)oc12 [3 (E)] | – | – | – | 250 to 1000 (≈ 811 to 3240 µM) | –
CO/C=C(/C(=O)OC)c1cccc2cc(-c3ccc(Oc4ccccc4)cc3)oc12 [25 (E), Methyl α-[(E)-methoxymethylene]-2-(4-phenoxyphenyl) -7-benzofuran acetate] | – | – | < 250 | – | –
CO/C=C(\C(=O)OC)c1cccc2cc(-c3ccc(OC)cc3)oc12 [1 (Z)] | < 250 | 100 | – | 250 to 1000 (≈ 739 to 2960 µM) | –
CO/C=C(/C(=O)OC)c1cccc2cc(-c3cccc(Cl)c3)oc12 [Example 11 (E)] | – | 100 | – | 250 to 1000 (≈ 729 to 2920 µM) | % of effectiveness on plasmopara viticola, Chardonnay vine (Plasmopara viticola): 100%

Reference: patent US5182295A, “Insecticidal benzofuran derivatives” (Roussel Uclaf, priority 1990, dated 1993)
